Reference: patent publication US9988371B2, “Benzimidazole analogues and related methods” (The Arizona Board of Regents, on Behalf of the University …, priority 2014, dated 2018)
Like-named read-outs stand apart in the source and are kept apart here.

Assays:
PK study in mice = assay type: in vivo; settings: for half-life: mouse, in vivo
Protocol: For PK studies of Pz-1 in animals, a solution formulation for oral administration was created in 500 μL of polysorbate 80, 500 μL of EtOH, and 1.0 mL of pH 2 buffer. For the toxicity studies, a suspension formulation was developed in tween 20 (20%) and xanthan gum (0.125%).
T112 (3-4 hrs) in rats was in line with T1/2 in mice (4.2 hrs).

TT cells xenografted = assay: TT cell xenograft in SCID mice; assay type: in vivo; settings: 0.3, 1.0, or 3.0 mg/kg daily, oral gavage, 28 days; all tested doses
Excerpt: FIG. 7: Anti-tumorigenic activity of Pz-1 on TT cells xenografted into SCID mice. […] Average volumes of tumors are reported±SD (standard deviation). TT cells (7.5×10^6/mouse) were inoculated subcutaneously into dorsal portions (both sides) of 39 female SCID mice (Jackson Laboratories, Bar Harbor, Me.). After 5 weeks, at least one tumour was present in each mouse and a total of 70 tumours were visible: 56 tumours were 40-150 mm^3 and 14 tumours were <40 mm^3. […] Tumor-bearing animals were randomly assigned to receive Pz-1 (0.3, 1.0, or 3.0 mg/kg, daily) (29 mice, 52 tumours) or vehicle (10 mice, 18 tumours) by oral gavage. Treatment was administered for 28 consecutive days. Tumor diameters were measured with calipers every week. Tumor volumes (V) were calculated by the rotational ellipsoid formula: V=A×B^2/2 (A=axial diameter; B=rotational diameter) and reported as average volumes±standard deviations. […]
TT cells (7.5×10^6/mouse) were inoculated subcutaneously into dorsal portions (both sides) of 39 SCID mice (Jackson Laboratories, Bar Harbor, Me.). […] Tumor diameters were measured with callipers every week. Tumor volumes (V) were calculated by the rotational ellipsoid formula: V=A×B^2/2 (A=axial diameter; B=rotational diameter) and reported as average volumes±standard deviations. […] Tumor diameters were measured with calipers every 1-2 days. […]

RET wild type = biological target: T1, RET wild type (Homo sapiens, UniProt P07949); assay: RET biochemical assay (EZ Reader mobility shift); settings: 30 min pre-incubation, 200 μM ATP, exact potency beyond measurable limit
T1 construct: purchased Invitrogen
Protocol: Suitable screening assays for RET and VEGFR2 small molecule kinase inhibitors (from a kinase-directed fragment (KDF) library) were established. The RET kinase assay utilizes an EZ Reader Electrophoresis Mobility Chip Instrument (Caliper Life Science). In the assay, 2 nM recombinant RET enzyme (Invitrogen) is pre-incubated with a small molecule inhibitor or control buffer for 30 min to allow the Type-II kinase inhibitor to trap the DFG-out conformation to which the inhibitors bind. This class of inhibitors is indirectly competitive with ATP, and slow binding kinetics (low kd) allow the inhibitors to appear non-competitive and pseudo-irreversible in nature. Because of the non-competitive nature of these inhibitors, a more biologically relevant concentration of ATP substrate (200 μM) was incorporated in this assay. After 30 min of pre-incubation, a substrate mix containing […], 20 mM MgCl2 and 1.5 μM fluorescently labeled RET substrate peptide (Caliper LS, peptide 22; Perkin Elmer, USA) was added. The conversion level of the RET substrate peptide was then determined utilizing the EZ Reader instrument. […]
The RET kinase assay utilizes a microfluidics based instrument for direct kinase activity readout (Caliper Life Science). […] The conversion level of the RET substrate peptide was determined utilizing the EZ Reader instrument. […]

FYN = biological target: T2, FYN (Homo sapiens, UniProt P06241); assay: KINOMEscan kinase panel; assay type: binding; settings: 50 nM
T2 construct: purchased KINOMEscan
Protocol: (§1) Pz-1 was exceptionally potent on RET and all tested RET mutants including gatekeeper mutants RET/V804M at less than 1 nM (FIGS. 1-3). The RET biochemical assay described herein was not suitable to determine activity of inhibitors having an IC50 of less than 1 nM, as the concentration of the RET enzyme in the assay was 2 nM. An intermediate compound was therefore used for the kinetics studies. […] Pz-1 was screened at concentration of 50 nM against 91 kinases in KINOMEscan, representing a diversity of each Kinome cluster. The kinase assays in KINOMEScan were more sensitive than the biochemical assays described above.

SRC = biological target: T3, SRC (Homo sapiens, UniProt P12931); assay: KINOMEscan kinase panel; assay type: binding; settings: 50 nM
T3 construct: purchased KINOMEscan
Protocol: as §1

GKA = assay: KINOMEscan kinase panel; assay type: binding; settings: 50 nM
Protocol: as §1

TRKB = biological target: T4, TRKB (Homo sapiens, UniProt Q16620); assay: KINOMEscan kinase panel; assay type: binding; settings: 50 nM
T4 construct: purchased KINOMEscan
Protocol: as §1

TRKC = biological target: T5, TRKC (Homo sapiens, UniProt Q16288); assay: KINOMEscan kinase panel; assay type: binding; settings: 50 nM
T5 construct: purchased KINOMEscan
Protocol: as §1

T5 sequence (Q16288 32-839): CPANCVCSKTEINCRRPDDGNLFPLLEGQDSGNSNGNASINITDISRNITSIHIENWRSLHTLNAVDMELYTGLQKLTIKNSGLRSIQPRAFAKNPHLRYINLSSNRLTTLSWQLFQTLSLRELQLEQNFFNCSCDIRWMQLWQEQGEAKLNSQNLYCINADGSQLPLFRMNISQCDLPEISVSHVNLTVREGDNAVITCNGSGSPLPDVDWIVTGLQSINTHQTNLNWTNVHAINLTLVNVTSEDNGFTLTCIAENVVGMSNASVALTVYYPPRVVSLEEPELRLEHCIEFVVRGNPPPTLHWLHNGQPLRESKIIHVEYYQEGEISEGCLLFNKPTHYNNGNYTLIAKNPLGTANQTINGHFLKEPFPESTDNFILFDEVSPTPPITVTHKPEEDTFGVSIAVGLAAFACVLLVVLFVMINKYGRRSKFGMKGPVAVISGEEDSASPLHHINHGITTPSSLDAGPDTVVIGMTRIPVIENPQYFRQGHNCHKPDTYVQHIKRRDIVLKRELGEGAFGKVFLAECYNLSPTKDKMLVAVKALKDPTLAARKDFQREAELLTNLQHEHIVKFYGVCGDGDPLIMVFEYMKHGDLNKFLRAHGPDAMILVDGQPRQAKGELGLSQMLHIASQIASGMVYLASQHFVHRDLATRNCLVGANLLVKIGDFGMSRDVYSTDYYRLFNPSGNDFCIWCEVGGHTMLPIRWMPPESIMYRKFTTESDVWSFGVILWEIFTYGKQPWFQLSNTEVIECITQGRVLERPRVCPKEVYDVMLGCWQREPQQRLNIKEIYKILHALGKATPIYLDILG
T4 sequence (Q16620 32-822): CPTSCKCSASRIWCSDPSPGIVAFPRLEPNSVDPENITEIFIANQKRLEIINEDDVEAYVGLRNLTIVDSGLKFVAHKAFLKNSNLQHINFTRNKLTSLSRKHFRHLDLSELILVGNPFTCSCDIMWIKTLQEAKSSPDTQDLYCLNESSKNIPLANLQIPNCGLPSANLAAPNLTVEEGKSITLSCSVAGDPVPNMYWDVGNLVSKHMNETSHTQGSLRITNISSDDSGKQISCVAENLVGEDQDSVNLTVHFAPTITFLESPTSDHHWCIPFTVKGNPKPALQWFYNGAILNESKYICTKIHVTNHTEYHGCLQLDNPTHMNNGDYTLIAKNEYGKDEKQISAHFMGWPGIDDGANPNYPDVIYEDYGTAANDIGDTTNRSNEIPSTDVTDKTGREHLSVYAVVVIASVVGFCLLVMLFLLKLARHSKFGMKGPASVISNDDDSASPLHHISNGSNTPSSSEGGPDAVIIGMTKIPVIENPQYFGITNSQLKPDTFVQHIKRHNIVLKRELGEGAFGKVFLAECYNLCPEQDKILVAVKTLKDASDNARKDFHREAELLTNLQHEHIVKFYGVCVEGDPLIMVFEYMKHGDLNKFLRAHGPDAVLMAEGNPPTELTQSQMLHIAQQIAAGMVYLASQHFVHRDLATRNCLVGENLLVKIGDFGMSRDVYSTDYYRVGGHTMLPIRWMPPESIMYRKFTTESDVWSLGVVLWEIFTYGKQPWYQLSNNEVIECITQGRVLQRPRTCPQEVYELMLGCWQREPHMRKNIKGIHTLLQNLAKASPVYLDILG
T2 sequence (P06241 whole entry): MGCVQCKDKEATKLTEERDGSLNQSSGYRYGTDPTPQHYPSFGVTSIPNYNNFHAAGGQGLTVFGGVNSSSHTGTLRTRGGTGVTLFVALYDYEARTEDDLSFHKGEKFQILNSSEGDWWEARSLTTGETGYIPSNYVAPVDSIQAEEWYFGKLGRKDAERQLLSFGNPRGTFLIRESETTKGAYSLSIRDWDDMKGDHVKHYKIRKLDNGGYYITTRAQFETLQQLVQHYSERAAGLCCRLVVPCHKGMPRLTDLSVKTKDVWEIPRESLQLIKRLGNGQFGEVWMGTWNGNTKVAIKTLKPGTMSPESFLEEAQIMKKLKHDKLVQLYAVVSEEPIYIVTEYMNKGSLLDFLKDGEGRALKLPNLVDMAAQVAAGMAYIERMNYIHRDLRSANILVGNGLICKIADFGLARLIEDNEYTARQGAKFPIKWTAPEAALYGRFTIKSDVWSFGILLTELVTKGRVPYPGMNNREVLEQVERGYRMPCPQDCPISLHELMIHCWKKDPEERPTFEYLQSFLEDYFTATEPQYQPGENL
T1 sequence (P07949 724-1016 limits assumed): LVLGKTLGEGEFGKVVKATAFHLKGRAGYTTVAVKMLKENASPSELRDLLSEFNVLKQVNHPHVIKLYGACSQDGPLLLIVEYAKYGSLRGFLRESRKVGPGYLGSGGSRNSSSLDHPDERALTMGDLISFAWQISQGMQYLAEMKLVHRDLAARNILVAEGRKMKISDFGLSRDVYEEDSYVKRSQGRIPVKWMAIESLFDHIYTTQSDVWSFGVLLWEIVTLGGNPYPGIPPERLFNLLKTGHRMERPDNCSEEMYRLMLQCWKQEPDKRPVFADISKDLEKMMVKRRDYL
T3 sequence (P12931 whole entry): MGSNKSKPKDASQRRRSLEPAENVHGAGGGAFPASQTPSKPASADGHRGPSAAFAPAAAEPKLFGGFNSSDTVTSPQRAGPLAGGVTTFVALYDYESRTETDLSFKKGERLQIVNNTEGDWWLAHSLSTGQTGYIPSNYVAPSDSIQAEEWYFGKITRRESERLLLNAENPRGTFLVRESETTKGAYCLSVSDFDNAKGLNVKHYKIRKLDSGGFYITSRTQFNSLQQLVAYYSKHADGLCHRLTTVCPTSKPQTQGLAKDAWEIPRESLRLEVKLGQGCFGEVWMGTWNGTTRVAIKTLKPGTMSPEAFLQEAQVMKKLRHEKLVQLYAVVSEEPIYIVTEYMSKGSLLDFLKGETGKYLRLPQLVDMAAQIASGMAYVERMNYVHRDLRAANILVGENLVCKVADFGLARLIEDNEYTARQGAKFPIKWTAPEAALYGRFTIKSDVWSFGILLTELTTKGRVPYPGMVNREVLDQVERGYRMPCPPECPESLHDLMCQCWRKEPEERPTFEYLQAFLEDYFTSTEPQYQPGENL

Cn1cc(-c2ccc3c(c2)ncn3-c2ccc(CC(=O)Nc3cc(C(C)(C)C)on3)cc2)cn1 [Pz-1, N-(5-(tert-butyl)isoxazol-3-yl)-2-(4-(5-(1-methyl-1H-pyrazol-4-yl)-1H-benzo[d]imidazol-1-yl)phenyl)acetamide]
AUC (PK study in mice; 2 mg/kg, solution formulation): 6.5 µg/h/mL | half-life (PK study in mice; oral, read-out: T1/2 (converted)): 4.2 h | half-life (PK study in mice; po, 2 mg/kg, read-out: elimination half-life (converted)): 3.8 h | tumor growth (TT cells xenografted): strongly inhibited tumor growth | IC50 (RET wild type): < 1 nM | inhibition at 0.05 µM (FYN): ~90% | inhibition at 0.05 µM (SRC): ~90% | inhibition of GKA (GKA): ~90% | inhibition at 0.05 µM (TRKB): ~90% | inhibition at 0.05 µM (TRKC): ~90%
